Experiment: Dissolution test, Paddle Method, CTAB-containing The Japanese Pharmacopoeia 2nd fluid
Assay type: physicochemical
Conditions: after 10 min; control group; 0.1% CTAB-containing JP 2nd fluid 500 mL, 100 rpm
Experimental: To be specific, the tablets obtained in Examples 1-3 were subjected to a dissolution test (Paddle Method, 0.1% cetyltrimethylammoniumbromide (CTAB)-containing The Japanese Pharmacopoeia Degradation Test2nd fluid (hereinafter to be abbreviated as CTAB-containing The Japanese Pharmacopoeia Degradation Test 2nd fluid) 500 mL, number of rotation 100 rpm). In addition, as a control group, the powder of compound A was subjected to a similar dissolution test and found to show a dissolution rate of 99% after 10 min.
To be specific, a dissolution test of the tablet obtained in Example 13 was performed in the same manner as in Experimental Example 1. In addition, as a control group, the tablet of Reference Example 1 was subjected to a similar dissolution test and found to show a dissolution rate of 100% after 10 min.
To be specific, each tablet obtained in Examples 7 and 21 was subjected to a dissolution test (Paddle Method, The Japanese Pharmacopoeia Degradation Test 1st fluid (hereinafter to be abbreviated as The Japanese Pharmacopoeia 1st fluid) 500 mL, number of rotation 100 rpm). In addition, in the same manner as above except that the eluent was a CTAB-containing The Japanese Pharmacopoeia 2nd fluid, a dissolution test of the tablets obtained in Examples 7 and 21 was performed. The results are shown in Table 4 and Table 5, respectively.

dissolution rate: 99%
SMILES: CC(C)Cn1c(CN)c(-c2ccccc2)c2cc(C(N)=O)ccc2c1=O [Compound A, 3-(aminomethyl)-2-isobutyl-1-oxo-4-phenyl-1,2-dihydroisoquinoline-6-carboxamide]

Reference: patent US20060039974A1, “Sustained release preparation” (TAKEDA PHARMACEUTICAL COMPANY LIMITED, priority 2002, published 2006)
